Laboratory results reported in EP0325279A1, “Dehydrocholecalciferol derivatives” (F. HOFFMANN-LA ROCHE AG, priority 1988, dated 1989).

Tested on: gezüchteten menschlichen Keratinocyten
Experiment: Morphological differentiation of cultured human keratinocytes (cell counts by cell type)
Format: cell-based
Details: Dosis 10⁻¹⁰ M

Row | SMILES | Anzahl Zellen (x10⁴): Basalzellen | Anzahl Zellen (x10⁴): Gesamtanzahl | Anzahl Zellen (x10⁴): Plattenepithelzellen | Anzahl Zellen (x10⁴): verhornte Plattenepithelzellen
1 | C=C1CC[C@H](O)C/C1=C/C=C1\CCC[C@]2(C)C([C@H](C)CCCC(C)(C)O)=CC[C@@H]12 [Verbindung B, 25-Hydroxy-16-dehydrocholecalciferol] | 15±5 x10⁴ | 133±6 x10⁴ | 18±1 x10⁴ | 25±1 x10⁴
2 | C=C1/C(=C\C=C2/CCC[C@]3(C)C([C@H](C)C/C=C/C(C)(C)O)=CC[C@@H]23)C[C@@H](O)C[C@@H]1O [Verbindung C, 1,25-Dihydroxy-16,23E-bisdehydrocholecalciferol] | 92±2 x10⁴ | 117±4 x10⁴ | 25±2 x10⁴ | 103±6 x10⁴

Same assay, conditions: Dosis 10⁻⁶ M

Row | SMILES | Anzahl Zellen (x10⁴): Basalzellen | Anzahl Zellen (x10⁴): Gesamtanzahl | Anzahl Zellen (x10⁴): Plattenepithelzellen | Anzahl Zellen (x10⁴): verhornte Plattenepithelzellen
3 | C=C1CC[C@H](O)C/C1=C/C=C1\CCC[C@]2(C)C([C@H](C)CCCC(C)(C)O)=CC[C@@H]12 [Verbindung B, 25-Hydroxy-16-dehydrocholecalciferol] | 74±3 x10⁴ | 104±4 x10⁴ | 30±1 x10⁴ | 33±1 x10⁴
4 | C=C1/C(=C\C=C2/CCC[C@]3(C)C([C@H](C)C/C=C/C(C)(C)O)=CC[C@@H]23)C[C@@H](O)C[C@@H]1O [Verbindung C, 1,25-Dihydroxy-16,23E-bisdehydrocholecalciferol] | 54±6 x10⁴ | 80±7 x10⁴ | 26±1 x10⁴ | 153±1 x10⁴

Same assay, conditions: Dosis 10⁻⁸ M

Row | SMILES | Anzahl Zellen (x10⁴): Basalzellen | Anzahl Zellen (x10⁴): Gesamtanzahl | Anzahl Zellen (x10⁴): Plattenepithelzellen | Anzahl Zellen (x10⁴): verhornte Plattenepithelzellen
5 | C=C1CC[C@H](O)C/C1=C/C=C1\CCC[C@]2(C)C([C@H](C)CCCC(C)(C)O)=CC[C@@H]12 [Verbindung B, 25-Hydroxy-16-dehydrocholecalciferol] | 109±2 x10⁴ | 131±4 x10⁴ | 22±2 x10⁴ | 29±2 x10⁴
6 | C=C1/C(=C\C=C2/CCC[C@]3(C)C([C@H](C)C/C=C/C(C)(C)O)=CC[C@@H]23)C[C@@H](O)C[C@@H]1O [Verbindung C, 1,25-Dihydroxy-16,23E-bisdehydrocholecalciferol] | 80±2 x10⁴ | 108±3 x10⁴ | 28±1 x10⁴ | 128±3 x10⁴

Tested on: menschlicher promyelocytischer Tumorzellen HL-60
Experiment: Antiproliferative (AP) effect on HL-60 cells
Format: cell-based
Details: Homo sapiens, concentration that reduces the cell number by 50%, read-out: ID50 (the source's name)
Source text: (§1) Zum Nachweis der Aktivität der Verbindungen der Formel I als Mittel zur Behandlung von neoplastischen Krankheiten wurden die antiproliferativen (AP) und die Differenzierung induzierenden Effekte (DI) der Verbindungen A bis F sowie die Anzahl menschlicher promyelocytischer Tumorzellen HL-60 ermittelt. In Tabelle 6 ist der AP Effekt als prozentuale Reduktion der Anzahl Zellen und als Konzentration ID₅₀, die die Zellenanzahl um 50% reduziert, angegeben. Der DI Effekt ist angegeben als Prozentsatz der differenzierten Zellen und als Konzentration ED₅₀ der Verbindungen, die eine 50%ige Differenzierung der Zellen bewirkt.

Row | IC50 | SMILES
7 | 350 nM | C=C1CC[C@H](O)C/C1=C/C=C1\CCC[C@]2(C)C([C@H](C)CCCC(C)(C)O)=CC[C@@H]12 [Verbindung B, 25-Hydroxy-16-dehydrocholecalciferol]
8 | 3 nM | C=C1/C(=C\C=C2/CCC[C@]3(C)C([C@H](C)C/C=C/C(C)(C)O)=CC[C@@H]23)C[C@@H](O)C[C@@H]1O [Verbindung C, 1,25-Dihydroxy-16,23E-bisdehydrocholecalciferol]

Same assay, conditions: Konzentration 0.01 (head prints x10 M)

Row | SMILES | % Reduktion der Anzahl Zellen
9 | C=C1/C(=C\C=C2/CCC[C@]3(C)C([C@H](C)C/C=C/C(C)(C)O)=CC[C@@H]23)C[C@@H](O)C[C@@H]1O [Verbindung C, 1,25-Dihydroxy-16,23E-bisdehydrocholecalciferol] | 18%

Same assay, conditions: Konzentration 0.1 (head prints x10 M)

Row | SMILES | % Reduktion der Anzahl Zellen
10 | C=C1CC[C@H](O)C/C1=C/C=C1\CCC[C@]2(C)C([C@H](C)CCCC(C)(C)O)=CC[C@@H]12 [Verbindung B, 25-Hydroxy-16-dehydrocholecalciferol] | 10%
11 | C=C1/C(=C\C=C2/CCC[C@]3(C)C([C@H](C)C/C=C/C(C)(C)O)=CC[C@@H]23)C[C@@H](O)C[C@@H]1O [Verbindung C, 1,25-Dihydroxy-16,23E-bisdehydrocholecalciferol] | 20%

Same assay, conditions: Konzentration 1 (head prints x10 M)

Row | SMILES | % Reduktion der Anzahl Zellen
12 | C=C1CC[C@H](O)C/C1=C/C=C1\CCC[C@]2(C)C([C@H](C)CCCC(C)(C)O)=CC[C@@H]12 [Verbindung B, 25-Hydroxy-16-dehydrocholecalciferol] | 8%
13 | C=C1/C(=C\C=C2/CCC[C@]3(C)C([C@H](C)C/C=C/C(C)(C)O)=CC[C@@H]23)C[C@@H](O)C[C@@H]1O [Verbindung C, 1,25-Dihydroxy-16,23E-bisdehydrocholecalciferol] | 81%

Same assay, conditions: Konzentration 10 (head prints x10 M)

Row | SMILES | % Reduktion der Anzahl Zellen
14 | C=C1CC[C@H](O)C/C1=C/C=C1\CCC[C@]2(C)C([C@H](C)CCCC(C)(C)O)=CC[C@@H]12 [Verbindung B, 25-Hydroxy-16-dehydrocholecalciferol] | 14%
15 | C=C1/C(=C\C=C2/CCC[C@]3(C)C([C@H](C)C/C=C/C(C)(C)O)=CC[C@@H]23)C[C@@H](O)C[C@@H]1O [Verbindung C, 1,25-Dihydroxy-16,23E-bisdehydrocholecalciferol] | 85%

Same assay, conditions: Konzentration 100 (head prints x10 M)

Row | SMILES | % Reduktion der Anzahl Zellen
16 | C=C1CC[C@H](O)C/C1=C/C=C1\CCC[C@]2(C)C([C@H](C)CCCC(C)(C)O)=CC[C@@H]12 [Verbindung B, 25-Hydroxy-16-dehydrocholecalciferol] | 82%
17 | C=C1/C(=C\C=C2/CCC[C@]3(C)C([C@H](C)C/C=C/C(C)(C)O)=CC[C@@H]23)C[C@@H](O)C[C@@H]1O [Verbindung C, 1,25-Dihydroxy-16,23E-bisdehydrocholecalciferol] | 86%

Same assay, conditions: Konzentration 1000 (head prints x10 M)

Row | SMILES | % Reduktion der Anzahl Zellen
18 | C=C1CC[C@H](O)C/C1=C/C=C1\CCC[C@]2(C)C([C@H](C)CCCC(C)(C)O)=CC[C@@H]12 [Verbindung B, 25-Hydroxy-16-dehydrocholecalciferol] | 95%

Tested on: menschlicher promyelocytischer Tumorzellen HL-60
Experiment: Differentiation-inducing (DI) effect on HL-60 cells
Format: cell-based
Details: Homo sapiens, concentration that causes 50% differentiation of the cells, read-out: ED50 (the source's name)
Source text: as §1

Row | EC50 | SMILES
19 | 320 nM | C=C1CC[C@H](O)C/C1=C/C=C1\CCC[C@]2(C)C([C@H](C)CCCC(C)(C)O)=CC[C@@H]12 [Verbindung B, 25-Hydroxy-16-dehydrocholecalciferol]
20 | 3 nM | C=C1/C(=C\C=C2/CCC[C@]3(C)C([C@H](C)C/C=C/C(C)(C)O)=CC[C@@H]23)C[C@@H](O)C[C@@H]1O [Verbindung C, 1,25-Dihydroxy-16,23E-bisdehydrocholecalciferol]

Same assay, conditions: Konzentration 0.01 (head prints x10 M)

Row | SMILES | Differenzierte Zellen (%)
21 | C=C1/C(=C\C=C2/CCC[C@]3(C)C([C@H](C)C/C=C/C(C)(C)O)=CC[C@@H]23)C[C@@H](O)C[C@@H]1O [Verbindung C, 1,25-Dihydroxy-16,23E-bisdehydrocholecalciferol] | 3%

Same assay, conditions: Konzentration 0.1 (head prints x10 M)

Row | SMILES | Differenzierte Zellen (%)
22 | C=C1CC[C@H](O)C/C1=C/C=C1\CCC[C@]2(C)C([C@H](C)CCCC(C)(C)O)=CC[C@@H]12 [Verbindung B, 25-Hydroxy-16-dehydrocholecalciferol] | 5%
23 | C=C1/C(=C\C=C2/CCC[C@]3(C)C([C@H](C)C/C=C/C(C)(C)O)=CC[C@@H]23)C[C@@H](O)C[C@@H]1O [Verbindung C, 1,25-Dihydroxy-16,23E-bisdehydrocholecalciferol] | 19%

Same assay, conditions: Konzentration 1 (head prints x10 M)

Row | SMILES | Differenzierte Zellen (%)
24 | C=C1CC[C@H](O)C/C1=C/C=C1\CCC[C@]2(C)C([C@H](C)CCCC(C)(C)O)=CC[C@@H]12 [Verbindung B, 25-Hydroxy-16-dehydrocholecalciferol] | 4%
25 | C=C1/C(=C\C=C2/CCC[C@]3(C)C([C@H](C)C/C=C/C(C)(C)O)=CC[C@@H]23)C[C@@H](O)C[C@@H]1O [Verbindung C, 1,25-Dihydroxy-16,23E-bisdehydrocholecalciferol] | 92%

Same assay, conditions: Konzentration 10 (head prints x10 M)

Row | SMILES | Differenzierte Zellen (%)
26 | C=C1CC[C@H](O)C/C1=C/C=C1\CCC[C@]2(C)C([C@H](C)CCCC(C)(C)O)=CC[C@@H]12 [Verbindung B, 25-Hydroxy-16-dehydrocholecalciferol] | 6%
27 | C=C1/C(=C\C=C2/CCC[C@]3(C)C([C@H](C)C/C=C/C(C)(C)O)=CC[C@@H]23)C[C@@H](O)C[C@@H]1O [Verbindung C, 1,25-Dihydroxy-16,23E-bisdehydrocholecalciferol] | 97%

Same assay, conditions: Konzentration 100 (head prints x10 M)

Row | SMILES | Differenzierte Zellen (%)
28 | C=C1CC[C@H](O)C/C1=C/C=C1\CCC[C@]2(C)C([C@H](C)CCCC(C)(C)O)=CC[C@@H]12 [Verbindung B, 25-Hydroxy-16-dehydrocholecalciferol] | 93%
29 | C=C1/C(=C\C=C2/CCC[C@]3(C)C([C@H](C)C/C=C/C(C)(C)O)=CC[C@@H]23)C[C@@H](O)C[C@@H]1O [Verbindung C, 1,25-Dihydroxy-16,23E-bisdehydrocholecalciferol] | 99%

Same assay, conditions: Konzentration 1000 (head prints x10 M)

Row | SMILES | Differenzierte Zellen (%)
30 | C=C1CC[C@H](O)C/C1=C/C=C1\CCC[C@]2(C)C([C@H](C)CCCC(C)(C)O)=CC[C@@H]12 [Verbindung B, 25-Hydroxy-16-dehydrocholecalciferol] | 95%
